# Legend:
# [1] = system: mouse; assay: LD50 (mouse), acute toxicity; format: in vivo
# [2] = system: rat; assay: Turning rat test (unilateral 6-OHDA lesion of the medial forebrain bundle); format: in vivo
# Description: Female rats weighing 150 g are anaesthetised with pentobarbital (50 mg kg^-1 i.p.) and fixed in a stereotaxic apparatus (David Kopf). A unilateral (right side) injection into the MFB (medial forebrain bundle) or 6-OHDA (6-hydroxy-dopamine), 3 μg as base, dissolved in 4 μl of Ringer solution containing 0.02% ascorbic acid, is carried out through a stainless-steel cannula (diameter 0.3 mm) connected to a microsyringe. The liquid is injected at a speed of 1 μl min^-1 by means of a high precision infusion pump. In order to reach the MFB (medial forebrain bundle), the following conditions are used: A=+3.8 mm, L (right)=0.9 mm, V=-3 mm according to the Atlas of Konig and Klippel.
# After 3 weeks recovery period, the operated rats are injected with apomorphine, 1 mg kg^1- i.p.. Those animals showing a regular contralateral (i.e., away from the lesioned side) turning, recorded automatically during 1 hour in a rotometer, are selected for further experiments. At least one week is allowed between each injection of screening compounds. […]
# The total number of ipsilateral or contralateral turns (full rotation around the vertical axes of the body) made by each rat, is automatically recorded over the time (usually 1 hour). 5 rats are injected for each dose and the mean of total turns per hour is determined.
# A compound is said active, if it produces more than 100 turns/hour. […] The results are expressed as: […]
# [3] = vs d-amphetamine and d-methamphetamine (Table I)
compound,measurement,setting,value
"CCn1cc(C(=O)O)c(=O)cc1-c1ccc2ccccc2c1 [1-ethyl-1,4-dihydro-6-(2-naphthyl)-4-oxonicotinic acid]",LD50 compared with d-amphetamine and d-methamphetamine,[1]; [3],substantially lower LD50
same,LD50 compared with nomifensin,[1]; vs nomifensin,about the same LD50
same,strength of action compared with d-amphetamine and d-methamphetamine,[2]; [3],about the same strength of action
same,activity compared with nomifensin,[2]; vs nomifensin,substantially superior to nomifensin

# — patent publication US4374261A, “1-Ethyl-1,4-dihydro-6-(2-naphthyl)-4-oxo-nicotinic acid and esters thereof” (Hoffmann-La Roche Inc., priority 1981, dated 1983)
